Data from the OligoGym collection.
“And” between values parts separate entries of the source, which are not always exact repeats. Equal values may be shown once. After the bases stand the sugars from the 5' end (letter, count) and the backbone: PS all phosphorothioate, else s phosphorothioate and o phosphodiester by linkage. Methylation of C is not given here. e = 2'-O-(2-methoxyethyl) (MOE); l = locked nucleic acid (LNA); k = constrained ethyl (cEt); d = 2'-deoxy (DNA)

Columns and labels:
ANGPTL2 = settings: ASO
KRAS = settings: ASO

Sequence	target mRNA inhibition (ANGPTL2; 5 µM) [%]	target mRNA inhibition (ANGPTL2; 25 µM) [%]	target mRNA inhibition (KRAS; A431, 2 µM)	other results
TGACCCCTGATTATTCA (sugars l1 d13 l3, PS)	7.55	4.06		
TATTAGCATCACTACTTT (sugars l4 d11 l3, PS)	48	52.1		
CATTTTGAGATTCCCCC (sugars l1 d14 l2, PS)	27.1	14		
GAACTCAGCCCAGTAGA (sugars l1 d14 l2, PS)	1.82	15.7		
GTATTGTGAGGAGTTTC (sugars l4 d11 l2, PS)	80	84.3		
TTATAAACTCCTTGCTCTA (sugars l1 d14 l4, PS)	33.2	42.4		
CCTTGCAAAATGGTGGTT (sugars l2 d14 l2, PS)	49.6	57.4		
CAGGCACACTAATGAGA (sugars l2 d12 l3, PS)	9.64	9.52		
TGATGATGCGGTTGTAG (sugars l3 d12 l2, PS)	64.2	70.3		
GAACCTCAATATCCTGC (sugars l1 d13 l3, PS)	62.6	72.6		
ACAGAGACTAGGCATTT (sugars l3 d10 l4, PS)	74.1	83.9		
AGTGTTTAAGAAGAAATG (sugars l4 d10 l4, PS)	41.7	54.8		
ATGAAGTCAGTCAGAGCCT (sugars l1 d16 l2, PS)	27.6	22.6		
CAGCTCATTGTTGAGCAG (sugars l2 d14 l2, PS)	-19	7.91		
AAGTTGATAGTTTATCTCC (sugars l3 d14 l2, PS)	76.3	83.8		
CTCCGGTAATGGCCCC (sugars l1 d12 l3, PS)	28.6	25.4		
ATGATGCGGTTGTAGGT (sugars l2 d13 l2, PS)	57.5			
GTGGGCAGGAGAAGGGAC (sugars l1 d15 l2, PS)	17.8	-18.2		
CAGAACAATGGGGAGGA (sugars l3 d12 l2, PS)	58.5	51.1		
CTTAATGGGCAGTAATA (sugars l4 d9 l4, PS)	32.6	42.3		
AGCTCAGTGGTGAGATGG (sugars l1 d15 l2, PS)	54.1	54.8		
TTGATTTGTCAGCAGG (sugars k3 d10 k3, PS)			65% and 66% and 74%	target mRNA inhibition (KRAS; A431, 0.185 µM): 41%; target mRNA inhibition (KRAS; A431, 0.556 µM): 60%; target mRNA inhibition (KRAS; A431, 1.667 µM): 77%; target mRNA inhibition (KRAS; A431, 5 µM): 87%

Sequence	target mRNA inhibition (ANGPTL2; 5 µM) [%]	target mRNA inhibition (ANGPTL2; 25 µM) [%]	target mRNA inhibition (KRAS; A431, 2 µM)	other results
TTGACAGGGATTAGGCA (sugars l1 d13 l3, PS)	11.6	23.9		
AAAGCTATTAGGAGTC (sugars k3 d10 k3, PS)			65%	
TCCAAGGCACTCTATGAT (sugars l2 d14 l2, PS)	13.8	27.7		
ATAATGGTGAATATCT (sugars k3 d10 k3, PS)			41%	
GCTCATTGTTGAGCAGC (sugars l1 d14 l2, PS)	-2.2	3.15		
ACTGGTGAGGAGTTGTT (sugars l2 d13 l2, PS)	26	25.8		
GATTGTGCTGAGCTTG (sugars k3 d10 k3, PS)			63%	
ACCATTCAAAGTTCAC (sugars kkddddddddddkeke, PS)			41%	
AGGTAAAAGCTAACAG (sugars k3 d10 k3, PS)			41%	target mRNA inhibition (KRAS; A431, 0.037 µM): 46%; target mRNA inhibition (KRAS; NCI-H460, 0.037 µM): 37.3%
ACTTCATTGTTTAAAA (sugars k3 d10 k3, PS)			0%	
AGTTACTCTTAGCCAAA (sugars l3 d10 l4, PS)	82.6	84.8		
CCAAGGGCACGTTTTA (sugars l2 d12 l2, PS)	-4	13.2		
GCAGTTATCACACCACA (sugars l1 d13 l3, PS)	38.9	44		
GTGTTTATGCAATGTT (sugars k3 d10 k3, PS)				target mRNA inhibition (KRAS; A431, 0.125 µM): 83%; target mRNA inhibition (KRAS; A431, 0.185 µM): 31%; target mRNA inhibition (KRAS; A431, 0.556 µM): 52%; target mRNA inhibition (KRAS; A431, 1.667 µM): 77%; target mRNA inhibition (KRAS; A431, 5 µM): 89%; target mRNA inhibition (KRAS; NCI-H460, 0.037 µM): 76.8%
ATCTTATTTTGTTTAACA (sugars l4 d10 l4, PS)	60.2	51.7		
AACCCCAGAGGATATGT (sugars l1 d13 l3, PS)	49.3	58.9		
ATCTTATGGTTAGGGG (sugars k3 d10 k3, PS)			20%	
TGATTTGTCAGCAGGA (sugars kddddddddddkekek, PS)			47%	
GCTGTGAAACTCTCTA (sugars k3 d10 k3, PS)			42%	
TCCATTTATGTGACTA (sugars kdddddddddkekeke, PS)			15%	
GCTGTGAAACTCTCTA (sugars kddddddddddkekek, PS)			41%	
AGTCCAGTGATACTTT (sugars k3 d10 k3, PS)			8%	

Sequence	target mRNA inhibition (ANGPTL2; 5 µM) [%]	target mRNA inhibition (ANGPTL2; 25 µM) [%]	target mRNA inhibition (KRAS; A431, 2 µM)	other results
GTGTTTATGCAATGTT (sugars kkkddddddddkekek, PS)			66%	target mRNA inhibition (KRAS; A431, 0.185 µM): 33%; target mRNA inhibition (KRAS; A431, 0.556 µM): 55%; target mRNA inhibition (KRAS; A431, 1.667 µM): 69%; target mRNA inhibition (KRAS; A431, 5 µM): 78%
TCACTTCATTGTTTAA (sugars k3 d10 k3, PS)			32%	
GAAAAGTGTTTATGCA (sugars k3 d10 k3, PS)			60%	
GCTGTGAAACTCTCTA (sugars kkddddddddkekekk, PS)			16%	
GTATCTTGTTGAGCTA (sugars k3 d10 k3, PS)			56%	
ATGACTAATAGCAGTG (sugars k3 d10 k3, PS)			49%	
AATCCATTTATGTGAC (sugars k3 d10 k3, PS)			26%	
TATAATGGTGAATATC (sugars k3 d10 k3, PS)			7%	
CTCTCTATGAAAGCTC (sugars k3 d10 k3, PS)			29%	
TTACTTTTTGACAAAT (sugars k3 d10 k3, PS)			0%	
TTGCTATAATAATCCC (sugars k3 d10 k3, PS)			39%	
AAAAAAAAAATTAATG (sugars k3 d10 k3, PS)			6%	
AGTGTGACTCAGTTAA (sugars kkddddddddkekekk, PS)			47%	
GTTTATGCAATGTTAA (sugars k3 d10 k3, PS)			55%	
GAGTCTTTATAGTAAT (sugars kdddddddddkekeke, PS)			21%	
CATTCAAAGTTCACAT (sugars kdddddddddkekeke, PS)			24%	
CTTGATTTGTCAGCAG (sugars k3 d10 k3, PS)			51% and 44%	
ATGTAAATATAGCCCC (sugars k3 d10 k3, PS)			28%	
GTGAATATCTTCAAAT (sugars k3 d10 k3, PS)			0%	
CATTCAAAGTTCACAT (sugars kkddddddddkekekk, PS)			96%	target mRNA inhibition (KRAS; A431, 0.185 µM): 5%; target mRNA inhibition (KRAS; A431, 0.556 µM): 7%; target mRNA inhibition (KRAS; A431, 1.667 µM): 9%; target mRNA inhibition (KRAS; A431, 5 µM): 16%
GCTATAATAATCCCCA (sugars k3 d10 k3, PS)			56%	target mRNA inhibition (KRAS; A431, 0.185 µM): 1%; target mRNA inhibition (KRAS; A431, 0.556 µM): 24%; target mRNA inhibition (KRAS; A431, 1.667 µM): 55%; target mRNA inhibition (KRAS; A431, 5 µM): 68%
AGTGATTAGGTCAAAT (sugars kddddddddddkekek, PS)			21%	

Sequence	target mRNA inhibition (ANGPTL2; 5 µM) [%]	target mRNA inhibition (ANGPTL2; 25 µM) [%]	target mRNA inhibition (KRAS; A431, 2 µM)	other results
TCCAGTGATACTTTCA (sugars k3 d10 k3, PS)			51%	
TTTCTGATGTGACTCA (sugars k3 d10 k3, PS)			57%	target mRNA inhibition (KRAS; A431, 0.185 µM): 0%; target mRNA inhibition (KRAS; A431, 0.556 µM): 23%; target mRNA inhibition (KRAS; A431, 1.667 µM): 43%; target mRNA inhibition (KRAS; A431, 5 µM): 60%
ACCATTCAAAGTTCAC (sugars kkkddddddddkekek, PS)			26%	
TTAGGAGTCTTTATAG (sugars k3 d10 k3, PS)			30%	
AAAAAAAATTAATGTC (sugars k3 d10 k3, PS)			14%	
TAACCAGTGTTAAGAG (sugars k3 d10 k3, PS)			40%	
GAGAATGGATATTCAA (sugars k3 d10 k3, PS)			8%	
TTAATGTCACAAGCAG (sugars k3 d10 k3, PS)			52%	
CTTTTAATGTCACAAG (sugars k3 d10 k3, PS)			9%	
AATTAATCCATTTATG (sugars k3 d10 k3, PS)			16%	
TACTAGTATGCCTTAA (sugars k3 d10 k3, PS)			16%	
CCATTCAAAGTTCACA (sugars kkdddddddddkdkdk, PS)			31%	
GATTGTGCTGAGCTTG (sugars k3 d9 k3 e1, PS)			30%	
TCCATTTATGTGACTA (sugars kkddddddddddkeke, PS)			22%	
ATGGTTAGGGGAATTA (sugars k3 d10 k3, PS)			33%	
TCTCTATGAAAGCTCA (sugars k3 d10 k3, PS)			50%	target mRNA inhibition (KRAS; A431, 0.037 µM): 61%; target mRNA inhibition (KRAS; A431, 5 µM): 96% and 92%; target mRNA inhibition (KRAS; NCI-H460, 0.037 µM): 49.7%
AGATTGTGCTGAGCTT (sugars kdddddddddkekeke, PS)			0%	
CAAAGTTCACATAAAG (sugars k3 d10 k3, PS)			21%	
TGATTTGTCAGCAGGA (sugars k3 d10 k3, PS)			59%	target mRNA inhibition (KRAS; A431, 0.185 µM): 19% and 0%; target mRNA inhibition (KRAS; A431, 0.556 µM): 58% and 36%; target mRNA inhibition (KRAS; A431, 1.667 µM): 72% and 58%; target mRNA inhibition (KRAS; A431, 5 µM): 81% and 74%
GTAGGGCATTTCTGAT (sugars k3 d10 k3, PS)			14%	
